We go through nine compounds from ChEMBL document CHEMBL1201862, “PubChem BioAssay data set” (2004).

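Five concentrations, 48 hours, 96-well plates. GI50 marks 50% less growth.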 Calls of active or inactive are those of the source. Cut-off read from the data, not from the text of the source: active = GI50 up to about 1.1 µM and inactive = higher.

Some test systems named below: ACHN; BT-549; CCRF-CEM; COLO 205; HCT-116; HL-60; K562; MDA-MB-231; Malme-3M; NCI-H460; NCI-H522; OVCAR-3; SK-MEL-2; SK-MEL-5; SK-OV-3; SNB-19; SW-620; TK-10; LOX IMVI; RXF 393.
What all share (assay): NCI anticancer screen, dose series, 48 h

On to `O=C(NCCNCCO)N/N=C/c1ccc(Cl)cc1`, for which the GI50 in the test with ACHN, in the test with BT-549, in the test with CCRF-CEM, with COLO 205, in the test on HCT-116 and in the test with HL-60 was > 100 µM (inactive) in each case. In addition, the GI50 with K562, in the test with MDA-MB-231, in the test on Malme-3M, in the test with NCI-H460, in the test on NCI-H522 and with OVCAR-3 was > 100 µM (inactive) each time. Further, the GI50 with SK-MEL-2, in the test on SK-MEL-5, in the test with SK-OV-3, with SNB-19, with SW-620 and with TK-10 was > 100 µM (inactive) throughout.

For the compound `Cc1cc(C)nc(NS(=O)(=O)c2ccc(Nc3c4ccccc4nc4c(C(=O)NCCO)cccc34)cc2)n1`, the GI50 in the test with ACHN was 19.7 µM (inactive); in the test on BT-549 it was 17.6 µM (inactive); in the test on CCRF-CEM, 10.3 µM (inactive); in the test with COLO 205, 15.1 µM (inactive); in the test on HL-60, 31.8 µM (inactive); in the test with K562 it was 12.4 µM (inactive). Moreover, the GI50 in the test on LOX IMVI was 10.6 µM (inactive); in the test with MDA-MB-231, 12.4 µM (inactive); in the test with Malme-3M, 14.8 µM (inactive); with NCI-H460 it was 14.1 µM (inactive); in the test on NCI-H522, 12.3 µM (inactive); in the test with OVCAR-3, 19.8 µM (inactive). The GI50 with SK-MEL-2 was 11.8 µM (inactive); in the test on SK-MEL-5, 17.1 µM (inactive); with SK-OV-3 it was 44.9 µM (inactive); in the test on SNB-19 it was 16.6 µM (inactive); with SW-620, 16.7 µM (inactive).

Take `CN1CC[C@]2(c3cccc(O)c3)CC(=O)/C(=C/c3ccc(Cl)c(Cl)c3)[C@@H]1C2`: the GI50 in the test on ACHN was 1.15 µM (inactive); with BT-549, 1.75 µM (inactive); in the test with CCRF-CEM, 0.337 µM (active); in the test with COLO 205, 1.6 µM (inactive); in the test on HCT-116, 1.13 µM (inactive); with HL-60, 0.199 µM (active). In addition, the GI50 is 0.296 µM (active) with K562; 0.175 µM (active) with LOX IMVI; 1.15 µM (inactive) with MDA-MB-231; 1.45 µM (inactive) in the test on Malme-3M; 1.28 µM (inactive) with NCI-H460; 0.427 µM (active) with RXF 393. Moreover, the GI50 was 1.55 µM (inactive) with SK-MEL-5, 1.75 µM (inactive) in the test on SNB-19, 1.14 µM (inactive) in the test with SW-620 and 1.86 µM (inactive) in the test on TK-10.

Regarding `C=CCN(c1cc(OC)c2c(c1[N+](=O)[O-])C(C)(SC)C(=O)N2)S(C)(=O)=O` (configuration not stated), the GI50 in the test on ACHN, in the test on BT-549, in the test with COLO 205, in the test on HCT-116, in the test on K562 and with LOX IMVI was > 100 µM (inactive) in each case. The GI50 is > 100 µM (inactive) in the test on MDA-MB-231; 97.5 µM (inactive) in the test on Malme-3M; > 100 µM (inactive) with NCI-H460; 82.2 µM (inactive) in the test on NCI-H522; > 100 µM (inactive) in the test on SK-MEL-2; > 100 µM (inactive) with SK-MEL-5. Besides, the GI50 with SK-OV-3 was > 100 µM (inactive); with SNB-19 it was 96.6 µM (inactive); in the test with SW-620, > 100 µM (inactive); with TK-10, 50.5 µM (inactive).

As for `COCP1(=S)OC(C)CCN1C(C)C` (configuration not stated), the GI50 in the test on ACHN, in the test on BT-549, with COLO 205, with HCT-116, in the test on K562 and in the test on LOX IMVI was > 100 µM (inactive) in each case. For the same compound, the GI50 in the test with MDA-MB-231, in the test with Malme-3M, in the test with NCI-H460, with OVCAR-3, in the test with SK-MEL-2 and with SK-MEL-5 was > 100 µM (inactive) each time. Further, the GI50 with SK-OV-3, in the test with SNB-19, in the test with SW-620 and in the test with TK-10 was > 100 µM (inactive) each time.

Regarding `CC(=O)C(C)C(=O)N1C(=O)N(C)C2(C)N(C)C(=O)NC12C` (configuration not stated), the GI50 in the test with ACHN, in the test on BT-549, with COLO 205, with HCT-116, in the test on HL-60 and in the test on MDA-MB-231 was > 100 µM (inactive) each time. For the same compound, the GI50 in the test with Malme-3M, with NCI-H460, in the test with NCI-H522, in the test with OVCAR-3, in the test on SK-MEL-2 and in the test with SK-MEL-5 was > 100 µM (inactive) each time. In addition, the GI50 with SK-OV-3, in the test with SNB-19 and in the test on TK-10 was > 100 µM (inactive) in each case.

As for `CSc1csc(-c2ccc(-c3ccc(-c4cc(SC)cs4)s3)s2)c1`, the GI50 in the test on ACHN, with BT-549, in the test with CCRF-CEM, with COLO 205, in the test on HCT-116 and with K562 was > 100 µM (inactive) each time. Also, the GI50 in the test on LOX IMVI, in the test on MDA-MB-231, with Malme-3M, with NCI-H460, in the test with OVCAR-3 and with SK-MEL-2 was > 100 µM (inactive) each time. Also, the GI50 in the test on SK-MEL-5, with SK-OV-3, with SNB-19, in the test on SW-620 and in the test with TK-10 was > 100 µM (inactive) throughout.

For the compound `CN(CCNC(=O)c1cn(C)c2c1ccc1ccccc12)CCNC(=O)c1cn(C)c2c1ccc1ccccc12`, the GI50 with ACHN is 3.36 µM (inactive); with BT-549, 1.26 µM (inactive); in the test with CCRF-CEM, 2.44 µM (inactive); in the test with HCT-116, 1.99 µM (inactive); with K562 it was 0.365 µM (active); with LOX IMVI it was 2.52 µM (inactive). Moreover, the GI50 in the test with MDA-MB-231 was 1.47 µM (inactive); in the test on Malme-3M, 2.14 µM (inactive); with NCI-H460 it was 1.85 µM (inactive); in the test with OVCAR-3 it was 2.26 µM (inactive); in the test with SK-MEL-2 it was 2.2 µM (inactive); in the test with SK-MEL-5 it was 2.6 µM (inactive). Further, the GI50 with SK-OV-3 is 8.04 µM (inactive); in the test on SNB-19, 3.57 µM (inactive); in the test with SW-620, 2.7 µM (inactive); with TK-10 it was 1.92 µM (inactive).

Turning to `c1ccc2c(c1)SCCCSCCSCCCS2`, the GI50 was > 100 µM (inactive) with BT-549; > 100 µM (inactive) with CCRF-CEM; > 100 µM (inactive) with COLO 205; > 100 µM (inactive) in the test on HCT-116; 39.4 µM (inactive) in the test with HL-60; > 100 µM (inactive) in the test on K562. The GI50 in the test with LOX IMVI is > 100 µM (inactive); in the test on MDA-MB-231, 57.3 µM (inactive); in the test on NCI-H460, > 100 µM (inactive); in the test on NCI-H522, > 100 µM (inactive); in the test on OVCAR-3, > 100 µM (inactive); with SK-MEL-5, > 100 µM (inactive). In addition, the GI50 in the test on SK-OV-3, in the test on SNB-19, in the test on SW-620 and in the test with TK-10 was > 100 µM (inactive) each time.
